In patent US20230407243A1, “GENETIC PLATFORM TO INVESTIGATE THE FUNCTIONS OF BACTERIAL DRUG EFFLUX PUMPS” (priority 2022, published 2023):
Like-named read-outs stand apart in the source and are kept apart here.

What was measured:
Assay type in all cases: cell-based, Escherichia coli
E. coli ΔtolC = test: microbe, parasite or virus in culture; conditions: for MIC: Escherichia coli, 18 h, read-out: Minimum Inhibitory Concentration, ΔtolC; for Minimum inhibitory concentration (MIC), ΔtolC: without pore, technical duplicate
Method in brief: (§1)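 MIC derived from pre-incubation-corrected OD600 after 18 h growth at 37° C. (900 rpm) in MHB II. Inoculum was cells from 18 h LB culture adjusted to OD600 ~1.0 in PBS, then diluted 1/2000; compounds two-fold serially titrated in duplicate, DMSO as solvent control.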

[1] = system: wild-type E. coli K-12 str. BW25113; test: microbe, parasite or virus in culture; conditions: Escherichia coli, BW25113, technical duplicate
Method in brief: as §1

E. coli EKO-35 = test: microbe, parasite or virus in culture; conditions: for Fold change of MICs: EKO-35 compared to EKO-35 (reference); for MIC: Escherichia coli, EKO35, technical duplicate
Method in brief: as §1

EKO-35 araC::acrD Pore = test: MIC susceptibility profiling, porinated efflux platform; conditions: for Fold changes of MICs: EKO-35 araC::acrD Pore compared to EKO-35-Pore; for MIC: Escherichia coli, Table 14A, porinated, technical duplicate, read-out: Minimum inhibitory concentration, EKO-35 araC::acrD Pore
Method in brief: (§2)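 MIC values come from background-corrected OD600 readings (pre-incubation OD subtracted) after 18 h at 37 °C and 900 rpm in MHB II. Compounds were tested in duplicate as 2-fold dilutions. The inoculum came from 18 h LB cultures adjusted to OD600 ~1.0 and diluted 1/2000, and the pore-bearing strains were vancomycin-checked beforehand.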

EKO-35 araC::emrKY Pore = test: as above; conditions: for Fold changes of MICs: EKO-35 araC::emrKY Pore compared to EKO-35-Pore; for MIC: Escherichia coli, EKO-35 araC::emrKY Pore, technical duplicate, read-out: Minimum inhibitory concentration
Method in brief: as §2

[2] = system: EKO-35 araC::acrBD408A Pore; test: as above; conditions: for Fold changes of MICs: EKO-35 araC::acrBD408A Pore compared to EKO-35-Pore; for MIC: Escherichia coli, EKO-35 araC::acrBD408A Pore, technical duplicate, read-out: Minimum inhibitory concentration
Method in brief: as §2

wild-type (WT) K-12-Pore = test: microbe, parasite or virus in culture; conditions: Escherichia coli, technical duplicate
Method in brief: as §2

ΔtolC-Pore = test: microbe, parasite or virus in culture; conditions: for MIC: Escherichia coli, 18 h, read-out: Minimum inhibitory concentration, ΔtolC-Pore; for Minimum inhibitory concentration (MIC), Pore ΔtolC: Table 10, with pore, technical duplicate
Method in brief: as §2

EKO-35 araC::acrBD408A = test: MIC susceptibility profiling, efflux platform; conditions: for Fold change of MICs: EKO-35 araC::acrBD408A compared to EKO-35; for MIC: Escherichia coli, Table 13B, non-porinated, technical duplicate, read-out: Minimum Inhibitory Concentration, EKO-35 araC::acrBD408A
Method in brief: as §1

EKO-35 araC::acrEF = test: MIC susceptibility profiling, efflux platform; conditions: EKO-35 araC::acrEF compared to EKO-35
Method in brief: as §1

EKO-35 araC::acrD = test: MIC susceptibility profiling, efflux platform; conditions: for Fold change of MICs: EKO-35 araC::acrD compared to EKO-35; for MIC: Escherichia coli, Table 13A, non-porinated, technical duplicate, read-out: Minimum Inhibitory Concentration, EKO-35 araC::acrD
Method in brief: as §1

EKO-35 araC::macAB = test: MIC susceptibility profiling, efflux platform; conditions: for Fold change of MICs: EKO-35 araC::macAB compared to EKO-35; for MIC: Escherichia coli, Table 13B, non-porinated, technical duplicate, read-out: Minimum Inhibitory Concentration, EKO-35 araC::macAB
Method in brief: as §1

EKO-35 araC::acrB = test: MIC susceptibility profiling, efflux platform; conditions: EKO-35 araC::acrB compared to EKO-35
Method in brief: as §1

EKO-35 araC::emrAB = test: MIC susceptibility profiling, efflux platform; conditions: for Fold change of MICs: EKO-35 araC::emrAB compared to EKO-35; for MIC: Escherichia coli, Table 13B, non-porinated, technical duplicate, read-out: Minimum Inhibitory Concentration, EKO-35 araC::emrAB
Method in brief: as §1

EKO-35 araC::mdtBC = test: MIC susceptibility profiling, efflux platform; conditions: for Fold change of MICs: EKO-35 araC::mdtBC compared to EKO-35
Method in brief: as §1

EKO-35 araC::emrKY = test: MIC susceptibility profiling, efflux platform; conditions: for MIC: Escherichia coli, Table 13B, non-porinated, technical duplicate, read-out: Minimum Inhibitory Concentration, EKO-35 araC::emrKY
Method in brief: as §1

[3] = system: EKO-35 araC::mexCD (MexCD from P. aeruginosa); test: MIC susceptibility profiling, efflux platform; conditions: for Fold change of MICs: EKO-35 araC::mexCD compared to EKO-35; for MIC: Table 13B, non-porinated, technical duplicate, read-out: Minimum Inhibitory Concentration, EKO-35 araC::mexCD
Method in brief: as §1

EKO-35 araC::mdtEF = test: MIC susceptibility profiling, efflux platform; conditions: for Fold change of MICs: EKO-35 araC::mdtEF compared to EKO-35; for MIC: Escherichia coli, Table 13A, non-porinated, technical duplicate, read-out: Minimum Inhibitory Concentration, EKO-35 araC::mdtEF
Method in brief: as §1

EKO-35-Pore = test: MIC susceptibility profiling, porinated strain; conditions: for Fold changes of MICs: EKO-35-Pore compared to EKO-35-Pore (reference); for MIC: Escherichia coli, technical duplicate
Method in brief: as §2

[4] = Table 10, without pore, read-out: Minimum inhibitory concentration (MIC), K-12
[5] = Table 13A, non-porinated, read-out: Minimum Inhibitory Concentration, K-12
[6] = Table 10, without pore, read-out: Minimum inhibitory concentration (MIC), EKO-35
[7] = Table 13A, non-porinated, read-out: Minimum Inhibitory Concentration, EKO-35
[8] = Table 10, with pore, read-out: Minimum inhibitory concentration (MIC), Pore K-12
[9] = Table 14A, porinated, read-out: Minimum inhibitory concentration, K-12 (WT)-Pore
[10] = Table 10, with pore, read-out: Minimum inhibitory concentration (MIC), Pore EKO-35
[11] = Table 14A, porinated, read-out: Minimum inhibitory concentration, EKO-35-Pore

| Compound | MIC (E. coli ΔtolC) [µg/mL] | Minimum inhibitory concentration (MIC), ΔtolC (E. coli ΔtolC; Table 10) [µg/mL] | MIC [1, 4] [µg/mL] | MIC [1, 5] [µg/mL] | Fold change of MICs (E. coli EKO-35) [fold] | MIC (E. coli EKO-35; [6]) [µg/mL] | MIC (E. coli EKO-35; [7]) [µg/mL] | Fold changes of MICs (EKO-35 araC::acrD Pore) [fold] | MIC (EKO-35 araC::acrD Pore) [µg/mL] | Fold changes of MICs (EKO-35 araC::emrKY Pore) [fold] | MIC (EKO-35 araC::emrKY Pore) [µg/mL] | Fold changes of MICs [2] [fold] | MIC [2] [µg/mL] | MIC (wild-type (WT) K-12-Pore; [8]) [µg/mL] | MIC (wild-type (WT) K-12-Pore; [9]) [µg/mL] | MIC (ΔtolC-Pore) [µg/mL] | Minimum inhibitory concentration (MIC), Pore ΔtolC (ΔtolC-Pore) [µg/mL] | Fold change of MICs (EKO-35 araC::acrBD408A) [fold] | MIC (EKO-35 araC::acrBD408A) [µg/mL] | Fold change of MICs (EKO-35 araC::acrEF) [fold] | further results |
| --- | --- | --- | --- | --- | --- | --- | --- | --- | --- | --- | --- | --- | --- | --- | --- | --- | --- | --- | --- | --- | --- |
| CCn1cc(C(=O)O)c(=O)c2cc(F)c(N3CCNCC3)cc21 [norfloxacin] | 0.02 | 0.020 | 0.078 | 0.078 | 1 | 0.02 | 0.02 | 2 | 0.02 | 1 | 0.01 | 2 | 0.02 | 0.078 | 0.078 | 0.01 | 0.010 | 1 | 0.02 | 4 | Fold change of MICs (EKO-35 araC::acrD): 1 fold; MIC (EKO-35 araC::acrD): 0.02 µg/mL; Fold change of MICs (EKO-35 araC::macAB): 1 fold; MIC (EKO-35 araC::macAB): 0.02 µg/mL; Fold change of MICs (EKO-35 araC::acrB): 4 fold; Fold change of MICs (EKO-35 araC::emrAB): 1 fold; MIC (EKO-35 araC::emrAB): 0.02 µg/mL; Fold change of MICs (EKO-35 araC::mdtBC): 1 fold; MIC (EKO-35 araC::mdtBC; Escherichia coli, Table 13B, non-porinated, technical duplicate, read-out: Minimum Inhibitory Concentration, EKO-35 araC::mdtBC): 0.02 µg/mL; MIC (EKO-35 araC::emrKY): 0.01 µg/mL; Fold change of MICs [3]: 2 fold; MIC [3]: 0.039 µg/mL; Fold change of MICs (EKO-35 araC::mdtEF): 1 fold; MIC (EKO-35 araC::mdtEF): 0.02 µg/mL; Fold changes of MICs (EKO-35-Pore): 1 fold; MIC (EKO-35-Pore; [10]): 0.01 µg/mL; MIC (EKO-35-Pore; [11]): 0.01 µg/mL |
| CO[C@@H]1[C@@H](OC(N)=O)[C@@H](O)[C@H](Oc2ccc3c(O)c(NC(=O)c4ccc(O)c(CC=C(C)C)c4)c(=O)oc3c2C)OC1(C)C [novobiocin] | 0.781 | 0.781 | 200 | 200 | 1 | 3.12 | 3.12 | 32 | 25 | 1 | 0.781 | 1 | 0.391 | 12.5 | 12.5 | 0.391 | 0.391 | 1 | 3.12 | 128 | fold difference in MIC between EKO-35 and ΔtolC (E. coli ΔtolC; ΔtolC mutant more susceptible than EKO-35, Table 10): 4 fold; efflux pump-mediated resistance vs EKO-35 (EKO-35 araC::acrD; AcrD): confirmed; Fold change of MICs (EKO-35 araC::acrD): 64 fold; MIC (EKO-35 araC::acrD): 200 µg/mL; Fold change of MICs (EKO-35 araC::macAB): 1 fold; MIC (EKO-35 araC::macAB): 1.56 µg/mL; Fold change of MICs (EKO-35 araC::acrB): 128 fold; Fold change of MICs (EKO-35 araC::emrAB): 8 fold; MIC (EKO-35 araC::emrAB): 25 µg/mL; Fold change of MICs (EKO-35 araC::mdtBC): 4 fold; efflux pump-mediated resistance vs EKO-35 (EKO-35 araC::mdtBC; MdtBC): conferred resistance; Fold change of MICs (EKO-35 araC::emrKY; EKO-35 araC::emrKY compared to EKO-35): 1 fold; MIC (EKO-35 araC::emrKY): 3.12 µg/mL; Fold change of MICs [3]: 8 fold; MIC [3]: 25 µg/mL; Fold change of MICs (EKO-35 araC::mdtEF): 16 fold; MIC (EKO-35 araC::mdtEF): 50 µg/mL; Fold changes of MICs (EKO-35-Pore): 1 fold; MIC (EKO-35-Pore; [10]): 0.781 µg/mL; MIC (EKO-35-Pore; [11]): 0.781 µg/mL |
